Assay results as given in US11986450B2, “Methods and compositions for treating infection and inflammation with selenocyanate” (National Jewish Health, priority 2017, dated 2024).

How the values were obtained:
M. Abscessus = assay: Killing of NTM clinical isolate with LPO/GOX and SCN or SeCN; format: cell-based; details: 1800 mU/mL LPO and 300 mU/mL GOX
Source text: A HOSCN-sensitive nontuberculous Mycobacteria (NTM) clinical isolate ws exposed to LPO/GOX with either SCn or SeCN.
(§1) Susceptibility of NTM species to both HOSCN- and HOSeCN-mediated killing. […] Given the shorter amount of time necessary for —SeCN-mediated killing of NTM compared to other bacteria species (FIGS. 24A and 24B), the possibility that the mechanism responsible for —SeCN-mediated killing of NTM was unique compared to —SCN-mediated killing of NTM and —SeCN-mediated killing of other species is determined. […] Since killing required LPO, the inventors believe that endogenous H2O2 production by NTM provided the H2O2 required for the generation of HOSeCN via LPO and —SeCN.

NTM = assay: Preincubation of NTM with LPO, washing, then SeCN; format: cell-based; details: data not shown
Protocol: The opposite is expected to be true for highly resistant NTMs. Adding exogenous catalase or an H2O2 scavenger is expected to inhibit —SeCN-mediated killing, while inhibiting endogenous catalase activity will increase —SeCN-mediated killing. In addition, LPO activity is expected to be localized to the surface of the bacterium. […] It is expected that very little Burkholderia will be killed when incubated in the presence of NTM/LPO/—SeCN, as the highly reactive HOSeCN species will be consumed by the NTM.

[1] = tested on: Burkholderia cepacian clinical isolate; assay: B. cepacia exposure to LPO and KSeCN; format: cell-based; details: 1000 mU/mL LPO, no GOX; 0 hr and 1 hour at 37 C
Source text: (§2) FIGS. 24A and 24B show —SeCN-mediated killing of NTM requires LPO, but not GOX, while LPO/—SeCn has no effect upon B. Cepacia. […] All conditions with GOX also contained dextrose, the required substrate of GOX for H2O2 production.
as §1

[2] = Inhaled SeCN in mice, ELF and serum levels by HPLC-EC; format: in vivo, Mice (C57B6); details: aerosolized isotonic 0.05% (w/v) solution in PBS for 30 minutes
Protocol: Mice are exposed to aerosolized isotonic (0.9%) or isotonic ^−SeCN (0.05%) in a Plexiglas nebulizing chamber (see FIG. 32 for data). Isotonicity is maintained by substituting ^−SeCN for NaCl. All stock solutions are freshly prepared and 10 mL are nebulized over the 30 minute exposure using a pulmosonic nebulizer (DeVilbiss). Outcomes include: 1) changes in serum, ELF, lung and BAL cell GSH, ^−SCN and SeCN levels; 2) changes is lung tissue Sec-TrxR levels and activity; 3) changes in oxidative stress with assessments of DNA (8-hydroxy-2-deoxyguanosine, 8OH2dG) and lipid (4-hydroxynonenal, 4HNE) oxidation; 4) changes in lung and blood bacterial CFUs; 5) changes in bronchoalveolar lavage fluid (BALF) protein, IgM and lactate dehydrogenase (LDH) as markers of edema and injury; 6) BAL cell counts and differentials as markers of inflammation; 7) changes in BALF cytokine profile (Mouse pro-inflammatory-7 Ultra sensitive kit, IFNγ, IL-1β, IL-10, IL-12p70, IL-6, KC, TNFα, Meso Scale Discovery) as markers of inflammation; and 8) standard histopathology assessments.

[3] = tested on: NTM strains (MABSC subspecies abscessus and massiliense); assay: LPO and SeCN dose responses in the killing of NTM; format: cell-based; details: four NTM strains, dose curves of LPO and SeCN, plated on LB agar immediately after mixing
Protocol: FIGS. 25A and 25B show [LPO] and [—SeCN] dose responses in the killing of NTM. […] All samples were plated on LB immediately after mixing. CF0271-0636 and the ATCC strains were MABSC subspecies abscessus and CF0008-6241 was subspecies massiliense.
(§3) To examine the variability in susceptibility to HOSeCN-mediated killing amongst clinical NTM isolates obtained from CF airways, four NTM strains were exposed to dose curves of LPO and —SeCN (FIGS. 25A and 25B). While some variations were detected in the sensitivity to killing amongst the isolates, bacterial viability was reduced to less than 10% with all isolates when plated on LB agar immediately after reactions were mixed. Importantly, levels of —SeCN able to reduce bacterial viability were not toxic to human epithelial cells, even in the presence of GOX (FIG. 26).

[4] = tested on: Human bronchial epithelial cells (HBE); assay: HBE cell viability (MTT) after SeCN / peroxidase system; format: cell-based; details: 1 hour treatment, viability 24 hours later, even in the presence of GOX
Protocol: (§4) Human bronchial epithelial cells (HBE) or Burkholderia cepacia complex (BCC) were treated for 1 hour in PBS (control), SeCN only (grey bars), glucose oxidase only (hatch bar), or full peroxidase system (black bar) at pH 7.4 and then media replaces and viability assessed 24 hours later. HBE cell viability assessed by MTT and bacterial cell viability assessed by colony forming units.
as §3

[5] = tested on: clinical isolate of M. abscessus; assay: NTM killing, exposure to GOX, LPO, SeCN components; format: cell-based; details: plated on LB agar immediately after mixing
Source text: as §2, §1

[6] = tested on: clinical isolate of M. abscessus; assay: SeCN-mediated killing of NTM in different buffer/media; format: cell-based
Protocol: FIGS. 27A-27C show —SeCN-mediaed killing of NTM requires active growth. A clinical isolate of M. abscessus was incubated in the listed buffer/media containing LPO at 1000 mU/ml and either KCL or SeCN. At the indicated time, samples were plated on LB agar as undiluted or 10× diluted in PBS. […] FIG. 27A in PBS; FIG. 27B in Middlebrook 7H9; FIG. 27C in Lysogeny Broth.
Given the reduced viability observed with immediate plating of LPO/—SeCN reactions on LB agar while —SCN-mediated killing required prolonged incubation, the possibility that HOSeCN generated on the LB agar was responsible for the loss in viability was determined. […] The inventors believe that the LPO in undiluted samples remained active on the LB agar, and that the HOSeCN-mediated killing of NTM, which was not metabolically active in the PBS buffer, requires active growth of the NTM, which occurs on the LB agar. To test this, the PBS buffer was substituted with either Middlebrook 7H9 media (without catalase) or LB broth (FIGS. 27A, 27B and 27C).

[7] = tested on: Pseudomonas aeruginosa, Burkholderia cepacia complex, methicillin resistant Staphylococcus aureus; assay: Killing of CF colonizing bacteria by SCN or SeCN with host defense system (LPO+GOX); format: cell-based; details: 400 uM with LPO+GOX, 2 hours at room temperature, CFU
Protocol: Comparisons of HOSeCN on SCN sensitive and resistant strains of (FIGS. 30A & 30B) BCC clinical isolates, (FIGS. 30C & 30D) PA clinical isolates, and (FIG. 30E & FIG. 30F) MRSA clinical isolates. Bacteria were incubated for 2 hour with LPO, ^−SCN or SeCN, glucose and increasing amounts of GOX. The flux (HOX) of either HOSCN or HOSeCN was determined from standard curves of GOX/LPO and either HOSCN or HOSeCN. LC50 values were determined by curve fitting the data with nonlinear regression of log (agonist) vs normalized response.

[8] = tested on: Burkholderia cepacia complex (BCC); assay: BCC viability (CFU) after SeCN / peroxidase system; format: cell-based; details: full peroxidase system, 1 hour, pH 7.4
Protocol: as §4

[9] = target: recombinant E. coli Cys-TrxR (Escherichia coli, UniProt P0A9P4); assay: Kinetic analysis of HOSeCN metabolism; format: biochemical; details: similar conditions
Sequence of recombinant E. coli Cys-TrxR (P0A9P4 whole entry): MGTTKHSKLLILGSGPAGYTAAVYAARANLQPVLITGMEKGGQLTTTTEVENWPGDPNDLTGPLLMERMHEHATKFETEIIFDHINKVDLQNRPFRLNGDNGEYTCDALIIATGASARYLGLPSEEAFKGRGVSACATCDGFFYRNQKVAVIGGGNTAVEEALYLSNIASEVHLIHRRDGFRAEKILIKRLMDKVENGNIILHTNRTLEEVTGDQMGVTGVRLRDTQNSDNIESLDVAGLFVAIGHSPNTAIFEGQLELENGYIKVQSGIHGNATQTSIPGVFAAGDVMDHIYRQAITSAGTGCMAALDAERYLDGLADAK
Source text: FIG. 12. Kinetic analysis of HOSeCN metabolism by recombinant mouse Sec-TrxR2 and recombinant E. coli Cys-TrxR.

[10] = target: Sec-containing TrxR2 (Sec-TrxR2) (Mus musculus, UniProt Q9JLT4); assay: Inactivation of TrxR by oxidants; format: biochemical
Sequence of Sec-containing TrxR2 (Sec-TrxR2) (Q9JLT4 35-524): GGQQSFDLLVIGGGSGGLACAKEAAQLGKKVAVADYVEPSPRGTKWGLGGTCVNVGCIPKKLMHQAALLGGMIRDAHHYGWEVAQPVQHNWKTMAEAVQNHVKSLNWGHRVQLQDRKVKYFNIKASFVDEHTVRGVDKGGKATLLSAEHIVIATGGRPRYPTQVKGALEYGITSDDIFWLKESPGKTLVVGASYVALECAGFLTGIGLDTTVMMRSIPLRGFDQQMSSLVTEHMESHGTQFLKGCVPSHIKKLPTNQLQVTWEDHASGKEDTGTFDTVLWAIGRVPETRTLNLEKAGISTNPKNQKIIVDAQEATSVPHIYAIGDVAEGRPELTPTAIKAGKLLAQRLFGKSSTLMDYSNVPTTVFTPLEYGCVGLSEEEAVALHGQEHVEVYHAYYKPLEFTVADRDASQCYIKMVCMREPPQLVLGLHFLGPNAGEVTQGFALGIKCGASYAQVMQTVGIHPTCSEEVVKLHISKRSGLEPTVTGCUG
Protocol: (§5) Based on data, it is expected that Sec-TrxR1 is able to metabolize both HOSCN and HOSeCN but not HOCl, and that Cys-TrxR's is unable to metabolize these oxidants. The active site Cys or Sec residue of each respective enzyme is oxidized to either Cys-SO2^− or Sec-SeO2^−. The Cys-TrxR cannot recover from this oxidation while the Sec-TrxR can. To test this, an inactivation assay is performed followed by structural analysis of the protein by MS. In the inactivation assay, (i) enzymes are reduced with NADPH, (ii) the enzymes are treated with oxidant followed by desalting to remove oxidant, and (iii) the enzyme is assayed for activity. […] The proteins are proteolyzed followed by LC-MS analyses. The LC-MS profiles are compared to control samples not treated with oxidant. This determines the exact mechanism of inactivation for each enzyme. […] This would explain why HOCl is highly inflammatory (nonspecific oxidation), and why HOSCN is used as a bactericide because it can rapidly inactivate proteins/enzyme by oxidation of sulfur amino acids (Cys, Met), but can be metabolized by the host cell by Sec-TrxR.

DmTrxR (containing Cys) = DmTrxR (containing Cys) (Drosophila melanogaster, UniProt P91938); assay: Inactivation of TrxR by oxidants; format: biochemical
Sequence of DmTrxR (containing Cys) (P91938 112-596 limits assumed): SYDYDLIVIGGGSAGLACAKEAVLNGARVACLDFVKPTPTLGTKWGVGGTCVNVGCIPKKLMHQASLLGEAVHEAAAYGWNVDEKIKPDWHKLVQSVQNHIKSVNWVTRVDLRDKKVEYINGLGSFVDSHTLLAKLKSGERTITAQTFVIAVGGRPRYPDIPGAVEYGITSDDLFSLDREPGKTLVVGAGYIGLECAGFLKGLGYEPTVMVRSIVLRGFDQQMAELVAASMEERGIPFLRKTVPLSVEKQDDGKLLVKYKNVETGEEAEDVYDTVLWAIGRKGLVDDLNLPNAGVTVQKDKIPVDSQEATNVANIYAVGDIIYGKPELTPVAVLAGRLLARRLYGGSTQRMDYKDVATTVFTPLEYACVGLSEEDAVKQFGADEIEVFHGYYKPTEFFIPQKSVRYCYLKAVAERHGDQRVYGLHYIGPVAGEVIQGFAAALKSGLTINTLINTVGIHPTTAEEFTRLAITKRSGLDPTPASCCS
Protocol: as §5

[11] = tested on: Pseudomonas aeruginosa (PA) lung infection
Protocol: FIGS. 8A-8C. […] Wild type (WT) and beta-subunit of the epithelial Na(+) channel (βENaC) Tg Mice were nebulized with 0.5% ^−SCN twice-daily starting 24 hrs post infection. Mice were sacrificed 72 hrs post infection and lung burden of PA was assessed (FIG. 8A), BAL neutrophil counts (FIG. 8B), and BALF KC cytokine (IL-8 analog) levels determined (FIG. 8C).
The inventors have shown critical in vivo proof of principle with inhaled ^−SCN in PA-infected mice (Chandler, J. D., et al. (2015); Chandler, J. D., et al. (2013) Nebulized thiocyanate improves lung infection outcomes in mice. Br J Pharmacol 169, 1166-1177). […] Mice that overexpress a sodium channel, βENaC, have been developed that spontaneously develop lung inflammation and mucous obstructions similar to that reported in subjects with CF (Mall, M., et al. (2004) Increased airway epithelial Na+ absorption produces cystic fibrosis-like lung disease in mice. Nat Med 10, 487-493). This model is useful to differentiate the antimicrobial effect of an agent from its potential anti-inflammatory effects.

[12] = tested on: Human peripheral blood neutrophils activated with PMA; details: 20 ng/ml PMA, 200 μM thiocyanate
Protocol: Cytotoxicity was assessed by measuring lactate dehydrogenase (LDH) release.

[13] = tested on: macrophage (J774A.1.) cells; details: 100 μM HOCl, 400 μM SCN, 15 minutes, viability after 6 hrs
Protocol: Cells were exposed to 100 μM HOCl and/or 400 μM ^−SCN in PBS for 15 minutes, washed and then placed in fresh media for 6 hrs before viability assessment with flow cytometry (FIG. 7A).

[14] = aerosolized isotonic 0.5% (w/v) solution in PBS for 30 minutes
Protocol: Mice (C57B6) were exposed to an aerosolized isotonic 0.5% (w/v) ^−SCN solution in PBS for 30 minutes (0 hr) and ^−SCN levels in the ELF and serum were determined by HPLC-EC at various time points.

[15] = LPO 1000 mU/ml, 0 to 4 hours, diluted 10× before plating
[16] = nebulized 0.5%, twice daily, started 1 day after infection, 72 hours

N#C[SeH] [SeCN, selenocyanate]
Killing of M. Abscessus, compared with SCN (M. Abscessus): more efficient than SCN | Killing of NTM after LPO preincubation and washing (NTM): substantial killing | Effect of LPO and SeCN alone upon B. cepacia [1]: no effect | ELF SeCN levels [2]: high ELF SeCN levels | Tolerability of inhaled SeCN [2]: well tolerated | Bacterial viability [3]: less than 10% | Toxicity to human epithelial cells (HBE viability) [4]: not toxic | Killing of NTM with LPO, without GOX [5]: only required LPO and —SeCN | Bacterial growth in Middlebrook 7H9 media [6, 15]: prevented bacterial growth | Viability in LB broth [6, 15]: loss of viability | Killing in PBS buffer ([6]; with LPO, samples diluted 10-fold before plating on LB agar): no killing detected | Killing of thiocyanate susceptible and resistant bacteria, compared with SCN [7]: as effective or superior

N#C[Se]O [HOSeCN, hyposelenocyanite]
Bacterial cell viability (CFU) [8]: killing bacteria | HOSeCN metabolism activity [9]: no measurable activity | Inactivation of Sec-TrxR2 by oxidant [10]: resists inactivation | Inactivation of DmTrxR by oxidant (DmTrxR (containing Cys)): is inactivated

N#CS [SCN, thiocyanate]
BAL neutrophil cell counts ([11]; mouse, in vivo): decreased | Lung CFU PA burden ([11]; mouse, in vivo): lower lung CFU PA burden | BAL levels of KC (IL-8 analog) [11, 16]: decreased | Body weight loss [11, 16]: less body weight loss | Lung pyocyanin levels [11, 16]: decreased lung pyocyanin levels | Cytoprotection in activated neutrophils [12]: cytoprotective | Protection from HOCl-mediated necrosis [13]: protects macrophage (J774A.1.) cells from HOCl-mediated necrosis | Killing of NTM with LPO, without GOX [5]: did not kill NTM | ELF SCN levels [14]: high ELF ^−SCN levels | Tolerability of inhaled SCN [14]: well tolerated
